In the Deep4Chem optical property database:

Test: photoluminescence quantum yield (fraction); solvent given as SMILES

SMILES: CC(=O)c1ccc2ccc3c(NCCC(=O)NCCCCCCc4nc5c(=O)[nH]c(N)nc5n4[C@H]4C[C@H](O)[C@@H](CO)O4)ccc4ccc1c2c43
- photoluminescence quantum yield (in C1CCOC1): 0.62
- photoluminescence quantum yield (in CC#N): 0.72
- photoluminescence quantum yield (in CC(C)O): 0.58
- photoluminescence quantum yield (in CCO): 0.49
- photoluminescence quantum yield (in CN(C)C=O): 0.63
- photoluminescence quantum yield (in CO): 0.44
- photoluminescence quantum yield (in CS(C)=O): 0.61
- photoluminescence quantum yield (in O): 0.27
- photoluminescence quantum yield (in OCC(O)CO): 0.38

SMILES: CC1(C)Cc2c(c3ccccc3c3nc4c5c(c6ccccc6c4nc23)OC(C)(C)C5)O1
- photoluminescence quantum yield (in C1CCCCC1): 0.42
- photoluminescence quantum yield (in C1COCCO1): 0.47
- photoluminescence quantum yield (in CC#N): 1
- photoluminescence quantum yield (in CC(C)O): 1
- photoluminescence quantum yield (in CCCCCC): 0.27
- photoluminescence quantum yield (in CO): 1
- photoluminescence quantum yield (in ClC(Cl)Cl): 0.53
- photoluminescence quantum yield (in c1ccccc1): 0.52

SMILES: F[B-]1(F)OC(c2ccccc2)=Nc2sc(-c3ccccc3)n[n+]21
- photoluminescence quantum yield (in C1CCOC1): 0.02
- photoluminescence quantum yield (in CCO): 0.01
- photoluminescence quantum yield (in CCOC(C)=O): 0.01
- photoluminescence quantum yield (in CN(C)C=O): 0.01
- photoluminescence quantum yield (in Cc1ccccc1): 0.06
- photoluminescence quantum yield (in ClC(Cl)Cl): 0.05
- photoluminescence quantum yield (in ClCCl): 0.03

SMILES: COC(=O)c1nc2c(N(C)C)nc(N)nc2n1Cc1ccccc1
- photoluminescence quantum yield (in C1COCCO1): 0.95
- photoluminescence quantum yield (in CC#N): 0.83
- photoluminescence quantum yield (in CO): 0.39
- photoluminescence quantum yield (in ClCCl): 0.95

SMILES: COC(=O)COc1ccc(/C=C/C2=[N+]3C(=C(c4ccc(N(C)C)cc4)c4c(C)cc(C)n4[B-]3(F)F)C(C)=C2)cc1
- photoluminescence quantum yield (in CO): 0.67

SMILES: c1ccc2cc(-n3c4ccccc4c4ccccc43)ccc2c1
- photoluminescence quantum yield (in C1CCCCC1): 0.48
- photoluminescence quantum yield (in CCOC(C)=O): 0.46
- photoluminescence quantum yield (in CO): 0.32

SMILES: CB1C=Cc2ccc3ccccc3c2N1c1ccccc1
- photoluminescence quantum yield (in C1CCCCC1): 0.04

SMILES: CCOC(=O)C1=C(C(=O)OCC)C2(c3ccccc3-c3ccccc32)[C@@H](c2ccc([N+](=O)[O-])cc2)C=C2c3cc(OC)c(OC)cc3CCN21
- photoluminescence quantum yield (in ClCCl): 0.00075

SMILES: CCCCN1C(=O)c2cc(Br)c3c4c(Br)c(Br)c5c6c(cc(Br)c(c7c(Br)c(Br)c(c2c37)C1=O)c64)C(=O)N(CCCC)C5=O
- photoluminescence quantum yield (in ClC(Cl)Cl): 0.11

SMILES: Brc1ccc(-c2nc3sc4ccccc4c3s2)cc1
- photoluminescence quantum yield (in CS(C)=O): 0.88

SMILES: c1ccc(-c2ccc(-c3ccc4c(c3)CCCO4)cc2)cc1
- photoluminescence quantum yield (in C1CCCCC1): 0.62

SMILES: N#Cc1ccc(-c2nc(-c3ccccc3)c3ccccn23)cc1
- photoluminescence quantum yield (in ClCCl): 0.21

SMILES: Cc1c2c(c(C)c3ccccc13)C1=CC3Nc4ccccc4NC3C=C12 (stereo not given)
- photoluminescence quantum yield (in ClC(Cl)Cl): 0.02

SMILES: Cc1cc(C)c(B(c2cc3ccc4cccc5ccc(c2)c3c45)c2c(C)cc(C)cc2C)c(C)c1
- photoluminescence quantum yield (in Cc1ccccc1): 0.68

SMILES: Cc1cc(C)c(-c2c3ccccc3c3ccc4cc5c(-c6c(C)cc(C)cc6C)c6ccccc6c6ccc7cc2c3c4c7c56)c(C)c1
- photoluminescence quantum yield (in ClCCl): 0.17

SMILES: O=CC1=Cc2cocc2C=C(C=O)C1
- photoluminescence quantum yield (in ClC(Cl)Cl): 0

SMILES: CC(C)(C)NC1=C2C=CC=[N+]2[B-](F)(F)n2cccc21
- photoluminescence quantum yield (in C1CCCCC1): 0.63
- photoluminescence quantum yield (in CC(C)=O): 0.002
- photoluminescence quantum yield (in CCO): 0.002
- photoluminescence quantum yield (in CCOC(C)=O): 0.012
- photoluminescence quantum yield (in CO): 0.001
- photoluminescence quantum yield (in OCC(F)(F)F): 0.006

SMILES: COc1ccc(/C=C/C2=[O+][B-](F)(F)OC(/C=C/c3ccc(OC)cc3)=C2c2ccccc2)cc1
- photoluminescence quantum yield (in CC#N): 0.42
- photoluminescence quantum yield (in CC(C)=O): 0.41
- photoluminescence quantum yield (in CCOC(C)=O): 0.34
- photoluminescence quantum yield (in CCOCC): 0.27
- photoluminescence quantum yield (in ClC(Cl)(Cl)Cl): 0.24
- photoluminescence quantum yield (in ClCCl): 0.41

SMILES: CCCCCCc1ccc2c3c(ccc2c1)O[B-](c1ccccc1)(c1ccccc1)[N+](c1ccc([N+]2=Cc4c(ccc5cc(CCCCCC)ccc45)O[B-]2(c2ccccc2)c2ccccc2)cc1)=C3
- photoluminescence quantum yield (in C1CCOC1): 0.32
- photoluminescence quantum yield (in CC#N): 0.27
- photoluminescence quantum yield (in Cc1ccccc1): 0.35
- photoluminescence quantum yield (in ClCCl): 0.47

SMILES: CCN(CC)c1ccc2c(-c3ccccc3C(=O)O)c3c([o+]c2c1)/C(=C/c1ccc(N(C)C)s1)CCC3
- photoluminescence quantum yield (in ClCCl): 0.04

SMILES: O=C1NC(c2ccccc2)=C/C1=C\c1ccccc1
- photoluminescence quantum yield (in C1COCCO1): 0.012

SMILES: C[C@]12SC(=O)C=C1c1nc(-c3ccc(Cl)cc3Cl)[nH]c1C1=CC(=O)S[C@@]12C
- photoluminescence quantum yield (in CC#N): 0.11

SMILES: CC1(C)c2ccccc2-c2cc3c4ccccc4n(-c4ccc(-c5nc(-c6ccccc6)nc(-c6ccccc6)n5)cc4)c3cc21
- photoluminescence quantum yield (in O=P(c1ccccc1)(c1ccccc1)c1ccccc1Oc1ccccc1P(=O)(c1ccccc1)c1ccccc1): 0.933

SMILES: CC1=C(c2ccccc2)C2=Cc3c(-c4ccccc4)c(C)c(C)n3[B-](F)(F)[N+]2=C1C
- photoluminescence quantum yield (in CC#N): 0.93

SMILES: C[Si]1(c2ccccc2)C(c2ccc3c(c2)c2ccccc2n3-c2ccccc2)=C(c2ccccc2)C(c2ccccc2)=C1c1ccc2c(c1)c1ccccc1n2-c1ccccc1
- photoluminescence quantum yield (in C1CCOC1): 0.04

SMILES: Cc1cc(C)c(B(c2cc(C#Cc3ccccc3)sc2-c2sc(C#Cc3ccccc3)cc2P(=O)(c2ccccc2)c2ccccc2)c2c(C)cc(C)cc2C)c(C)c1
- photoluminescence quantum yield (in CO): 0.61

SMILES: CCCCCCc1ccc2c3c(ccc2c1)O[B-](F)(F)[N+](c1ccc([N+]2=Cc4c(ccc5cc(CCCCCC)ccc45)O[B-]2(F)F)cc1)=C3
- photoluminescence quantum yield (in C1CCOC1): 0.35
- photoluminescence quantum yield (in CC#N): 0.3
- photoluminescence quantum yield (in Cc1ccccc1): 0.43
- photoluminescence quantum yield (in ClCCl): 0.44

SMILES: CC(=O)c1c(N[C@@H](Cc2ccccc2)C(=O)O)c2ccc(N(C)C)cc2oc1=O
- photoluminescence quantum yield (in ClCCl): 0.0026

SMILES: CN(C)c1ccc(C2=Nc3sc4cc(F)ccc4[n+]3[B-](F)(F)O2)cc1
- photoluminescence quantum yield (in C1CCOC1): 0.72
- photoluminescence quantum yield (in CC#N): 0.13
- photoluminescence quantum yield (in CC(C)=O): 0.23
- photoluminescence quantum yield (in Cc1ccccc1): 0.85
- photoluminescence quantum yield (in ClCCl): 0.74

SMILES: Cc1ccc(C2=C3C=C(I)C(I)=[N+]3[B-](F)(F)n3c2cc(I)c3I)cc1
- photoluminescence quantum yield (in C1CCCCC1): 0.099
- photoluminescence quantum yield (in CC#N): 0.058
- photoluminescence quantum yield (in CCO): 0.067
- photoluminescence quantum yield (in CCOC(C)=O): 0.073
- photoluminescence quantum yield (in CO): 0.061
- photoluminescence quantum yield (in OCC(F)(F)F): 0.059

SMILES: O=c1oc2ccc3ccccc3c2nc1-c1ccc(Cl)cc1
- photoluminescence quantum yield (in c1ccccc1): 0.478

SMILES: O=C(O)COc1ccc2[nH]c3c(c2c1)CCCC3=O
- photoluminescence quantum yield (in C1CCOC1): 0.01
- photoluminescence quantum yield (in C1COCCO1): 0.007
- photoluminescence quantum yield (in CC#N): 0.024
- photoluminescence quantum yield (in CCCCCCCCCCCCO): 0.012
- photoluminescence quantum yield (in CCCCCCCCCCO): 0.009
- photoluminescence quantum yield (in CCCCCCCCO): 0.017
- photoluminescence quantum yield (in CCCCCCO): 0.016
- photoluminescence quantum yield (in CCCCO): 0.012
- photoluminescence quantum yield (in CCO): 0.017
- photoluminescence quantum yield (in CCOC(C)=O): 0.018
- photoluminescence quantum yield (in CN(C)C=O): 0.07
- photoluminescence quantum yield (in CO): 0.051
- photoluminescence quantum yield (in CS(C)=O): 0.087
- photoluminescence quantum yield (in Cc1ccccc1): 0.026
- photoluminescence quantum yield (in O): 0.011
- photoluminescence quantum yield (in c1ccccc1): 0.006

SMILES: CN(C)c1ccc(C(=O)Nc2ccc(Cl)cc2)cc1
- photoluminescence quantum yield (in C1CCCCC1): 0.0011
- photoluminescence quantum yield (in C1CCOC1): 0.0101
- photoluminescence quantum yield (in CC#N): 0.0171
- photoluminescence quantum yield (in CCOCC): 0.005

SMILES: O=C1c2ccccc2C2=Nc3cccc4cccc(c34)N12
- photoluminescence quantum yield (in ClCCl): 0.02

SMILES: COc1ccc(/C2=C3N=C(C(c4ccccc4)=C/3c3ccccc3)/C(c3ccc(OC)cc3)=c3\[nH]/c(c(-c4ccccc4)c3-c3ccccc3)=C(/c3ccc(OC)cc3)C3=N/C(=C(/c4ccc(OC)cc4)c4[nH]c2c(-c2ccccc2)c4-c2ccccc2)C(c2ccccc2)=C3c2ccccc2)cc1
- photoluminescence quantum yield (in ClCCl): 0.006

SMILES: CC(C)(C)c1ccc(-c2ccc3c(-c4ccc(C(C)(C)C)c5ccccc45)cc4c5cc(-c6ccc(C(C)(C)C)c7ccccc67)ccc5c(-c5ccc(C(C)(C)C)c6ccccc56)cc4c3c2)c2ccccc12
- photoluminescence quantum yield (in ClCCl): 0.72

SMILES: COC(=O)/C(C#N)=c1\s/c(=c2/s/c(=C(/C#N)C(=O)OC)c3cc(-c4ccccc4)sc23)c2sc(-c3ccccc3)cc12
- photoluminescence quantum yield (in Cc1ccccc1): 0.366

SMILES: N#Cc1ccc(/C=C2\N=C(c3ccccc3)NC2=O)cc1
- photoluminescence quantum yield (in C1COCCO1): 0.158

SMILES: O=[N+]([O-])c1ccc(-c2nc3c(c4c2-c2ccccc2CC4)-c2ccccc2CC3)cc1
- photoluminescence quantum yield (in CC#N): 0.037
- photoluminescence quantum yield (in CS(C)=O): 0.085
- photoluminescence quantum yield (in ClCCl): 0.059

SMILES: COc1cc2c3cc(OC)c(OC)cc3c3cc4c(C)cc(=O)oc4cc3c2cc1OC
- photoluminescence quantum yield (in CO): 0.02
- photoluminescence quantum yield (in CS(C)=O): 0.056
- photoluminescence quantum yield (in ClC(Cl)Cl): 0.08

SMILES: CN(C)c1ccc(C(=O)Nc2ccc([N+](=O)[O-])cc2)cc1
- photoluminescence quantum yield (in C1CCCCC1): 0.0001
- photoluminescence quantum yield (in C1CCOC1): 0.0003
- photoluminescence quantum yield (in CC#N): 0.0002
- photoluminescence quantum yield (in CCOCC): 0.0006

SMILES: CN(C)c1ccc(C#CC2=C3CCc4ccccc4C3=[O+][B-](F)(F)O2)cc1
- photoluminescence quantum yield (in ClCCl): 0

SMILES: CCCCC(CC)COc1ccc2nc(-c3ccc(-c4c(C)noc4C)s3)sc2c1 (stereo not given)
- photoluminescence quantum yield (in ClCCl): 0.72

SMILES: CC1=[N+]2C(=C(c3ccc(-c4c5ccccc5c(-c5ccccc5)c5ccccc45)cc3)c3ccc(C)n3[B-]2(F)F)C=C1
- photoluminescence quantum yield (in CC#N): 0.002
- photoluminescence quantum yield (in CCCCCC): 0.204
- photoluminescence quantum yield (in CCO): 0.037
- photoluminescence quantum yield (in CN(C)C=O): 0.002
- photoluminescence quantum yield (in Cc1ccccc1): 0.259
- photoluminescence quantum yield (in ClCCl): 0.027

SMILES: CN(C)c1ccc2nc(-c3ccc(C(=O)Nc4ccccc4)cc3)sc2c1
- photoluminescence quantum yield (in C1CCCCC1): 0.89
- photoluminescence quantum yield (in CC#N): 0.92
- photoluminescence quantum yield (in CC(C)O): 0.91
- photoluminescence quantum yield (in CO): 0.76
- photoluminescence quantum yield (in CS(C)=O): 0.99
- photoluminescence quantum yield (in ClC(Cl)Cl): 0.98
- photoluminescence quantum yield (in c1ccccc1): 0.92

SMILES: Nc1ccc2cc3ccccc3cc2c1
- photoluminescence quantum yield (in C1CCCCC1): 0.86

SMILES: COc1ccc2n1[B-](F)(F)[N+]1=C(c3ccccc3)C=CC1=C2c1ccc(C)cc1
- photoluminescence quantum yield (in C1CCCCC1): 0.28
- photoluminescence quantum yield (in C1CCOC1): 0.3
- photoluminescence quantum yield (in C1COCCO1): 0.36
- photoluminescence quantum yield (in CCOC(C)=O): 0.28
- photoluminescence quantum yield (in CO): 0.23
- photoluminescence quantum yield (in Cc1ccccc1): 0.51
- photoluminescence quantum yield (in ClC(Cl)Cl): 0.38

SMILES: Cc1ccc(C2CC(c3ccc(O)cc3)=NN2c2ccc(S(N)(=O)=O)cc2)cc1 (stereo not given)
- photoluminescence quantum yield (in C1CCOC1): 0.7
- photoluminescence quantum yield (in C1COCCO1): 0.73
- photoluminescence quantum yield (in CC#N): 0.64
- photoluminescence quantum yield (in CC(C)O): 0.5
- photoluminescence quantum yield (in CCO): 0.43
- photoluminescence quantum yield (in CCOC(C)=O): 0.68
- photoluminescence quantum yield (in CN(C)C=O): 0.76
- photoluminescence quantum yield (in CO): 0.33
- photoluminescence quantum yield (in CS(C)=O): 0.82
- photoluminescence quantum yield (in O): 0.55
